Values quoted from earlier work in patent publication US10073089B2 (priority 2011, dated 2018).

Tested on: torpedo electrocyte membranes
Conditions: read-out: Sensitivity (concentration in nM)

Substance	IC50 [nM]
13-desmethyl spirolide C [13-SPX C]	108
gymnodimine A [GYM A]	391
